Measured values published in ChEMBL document CHEMBL1147725, “Identification and biological characterization of 6-aryl-7-isopropylquinazolinones as novel TRPV1 antagonists that are effective in models of chronic pain” (J Med Chem, 2006).

Target: Transient receptor potential cation channel subfamily V member 1 (Homo sapiens, UniProt Q8NER1)
Assay: Inhibition of calcium influx evoked by capsaicin in human TRPV1 expressing cells by fluorescence assay
Format: functional

Chain of Transient receptor potential cation channel subfamily V member 1 (Q8NER1 whole entry): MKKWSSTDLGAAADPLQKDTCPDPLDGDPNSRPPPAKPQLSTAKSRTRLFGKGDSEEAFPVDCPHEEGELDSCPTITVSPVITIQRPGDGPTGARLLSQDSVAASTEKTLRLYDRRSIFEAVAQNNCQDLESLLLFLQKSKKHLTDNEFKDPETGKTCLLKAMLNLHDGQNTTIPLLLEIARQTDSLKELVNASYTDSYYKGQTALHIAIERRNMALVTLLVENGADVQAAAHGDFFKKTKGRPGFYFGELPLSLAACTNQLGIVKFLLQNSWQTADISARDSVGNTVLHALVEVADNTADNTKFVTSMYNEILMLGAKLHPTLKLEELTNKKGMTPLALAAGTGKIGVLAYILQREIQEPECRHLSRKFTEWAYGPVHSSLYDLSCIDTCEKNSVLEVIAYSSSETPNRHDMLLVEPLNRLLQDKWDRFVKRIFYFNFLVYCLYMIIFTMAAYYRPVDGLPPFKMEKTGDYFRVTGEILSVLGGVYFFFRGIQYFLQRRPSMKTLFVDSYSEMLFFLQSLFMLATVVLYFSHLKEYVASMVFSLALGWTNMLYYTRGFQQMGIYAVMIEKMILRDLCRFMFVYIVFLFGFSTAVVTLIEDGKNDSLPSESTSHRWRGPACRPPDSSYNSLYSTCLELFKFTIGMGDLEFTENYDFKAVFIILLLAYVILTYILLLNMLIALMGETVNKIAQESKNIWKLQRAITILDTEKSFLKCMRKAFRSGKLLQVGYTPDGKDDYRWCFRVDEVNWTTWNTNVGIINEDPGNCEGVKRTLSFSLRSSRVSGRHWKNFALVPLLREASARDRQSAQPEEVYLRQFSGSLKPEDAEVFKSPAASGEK

IC50 | Compound
23 nM | Cc1nc2cc(C(C)C)c(-c3ccc(Cl)c(F)c3)cc2c(=O)[nH]1
42 nM | Cc1nc(O)c2cc(-c3ccc(C)c(Cl)c3)c(C(C)C)cc2n1
14 nM | COc1cc(-c2cc3c(=O)[nH]c(C)nc3cc2C(C)C)ccc1Cl
